# Reference: patent US8124056B2, “High throughput genetic screening of lipid and cholesterol processing using fluorescent compounds” (Trustees of the University of Pennsylvania, priority 2000, dated 2012)
# Experiments:
# 5 dpf zebrafish larvae = assay: Gall bladder fluorescence in 5 dpf zebrafish larvae soaked in fluorescent lipids; settings: 5 dpf larvae soaked in the lipid
# Procedure: A. Bright-field image of a 5 dpf larva soaked in PED6 (3 μg/ml, 2 hr). B. Corresponding fluorescent image, with intestinal (arrow) and gall bladder (arrowhead) labeling. C. Larva soaked in BODIPY-C5-PC (0.2 μg/ml).
# To determine whether these reagents could be used to study organ specific PLA2 activity, the quenched fluorescent lipids were administered to zebrafish larvae at 5 dpf, a developmental stage when the major larval organ systems function (FIG. 2).
# First, to establish that PED6 is swallowed by the larvae, an unquenched fluorescent lipid was administered to 5 dpf larvae, and the appearance of labeled lipid in the pharynx and intestinal lumen before the gallbladder was noted (FIGS. 3C & 4). […] Dissected adult gall bladders were lysed in embryo medium (EM) (30 μl) containing BODIPY-FL-C5-PC (0.1 μg) to release bile. PLA2 activity was determined as described (1). Measurements were compared with activity of bile-depleted gallbladders. […] Fluorescent images were captured over 1 hr using a Zeiss Axiocam 2 mounted on a Leica MZFL-III.
# mice = assay: Biliary fluorescence in mice given PED6 by gavage; format: in vivo, mouse; settings: PED6 1 μg by gavage, t=30 min
# Procedure: FIG. 5. Lipid processing. […] C. Mouse digestive organs. D. Gall bladder fluorescence after processing (t=30 min) of PED6 (1 μg), administered by gavage. Symbols: gb, ball bladder; d, common bile duct; lv, liver. Scale bars, 1.0 mm (C and D), 200 μm (other images).
compound,measurement,setting,value
"CCCCCCCCCCCCCCCC(=O)OC[C@H](COP(=O)(O)OCCNC(=O)CCCCCNc1ccc([N+](=O)[O-])cc1[N+](=O)[O-])OC(=O)CCCCC1=[N+]2C(=Cc3c(C)cc(C)n3[B-]2(F)F)C=C1 [PED6, N-((6-(2,4-dinitrophenyl)amino)hexanoyl)-1-palmitoyl-2-BODIPY-FL-pentanoyl-sn-glycero-3-phosphoethanolamine]",time to gall bladder fluorescence after ingesting the lipid,5 dpf zebrafish larvae,15 to 20 min
same,biliary (gall bladder) fluorescence after gavage,mice,rapid appearance of biliary fluorescence
nitrobenzoxadiazole cholesterol [NDB cholesterol],time to gall bladder fluorescence after ingesting the lipid,5 dpf zebrafish larvae,≤ 30 min
